{
  "source": "paper PMC5505994",
  "about": "(Scientific Reports, 2017)",
  "biological_target": "T1, MbAhpC (Mycobacterium tuberculosis, UniProt P9WQB7)",
  "T1 construct": "gene ahpC",
  "T1 sequence (P9WQB7 whole entry)": "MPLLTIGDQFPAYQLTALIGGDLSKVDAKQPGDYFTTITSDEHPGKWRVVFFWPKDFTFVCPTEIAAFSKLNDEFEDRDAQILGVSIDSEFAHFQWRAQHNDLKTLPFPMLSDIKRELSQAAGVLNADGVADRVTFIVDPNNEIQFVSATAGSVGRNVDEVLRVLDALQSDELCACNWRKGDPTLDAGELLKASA",
  "settings": "read-out: K m ± SD",
  "data": [
    {"smiles": "CC(C)(C)OO", "note": "[tert-butyl hydroperoxide]", "values": [
      {"measurement": "Km", "result": "2.23 ± 0.49", "unit": "µM"}
    ]}
  ]
}
